Assay in all cases: biochemical
Holding throughout (set-up): KINOMEscan competition binding panel (Eurofins DiscoverX), single concentration, % inhibition
Common to all, as to settings: read-out: 7 at 1 µM % inhibition

For one experiment, the target named is STK35 (Homo sapiens, UniProt Q8TDR2). As to the method:
(§1) KinomeScan® Assay on 7 and 15 was performed as previously described by EuroFins DiscoverX [24]. GSK114 (7) and 15 were submitted for a KINOMEscan® assay to explore the selectivity profile across >400 human kinases at a compound concentration of 1 µM. […] GSK114 (7) is a narrow-spectrum TNNi3K inhibitor but has some potent off-targets including GAK which has been previously reported for this chemotype. […] If utilized together this set of compounds could be useful to investigate TNNi3K biology.

Experiment [1] has as its target T1, RPS6KA4(Kin.Dom.2-C-terminal) (Homo sapiens, UniProt O75676).
T1 construct: Kin.Dom.2-C-terminal
As to the method:
as §1

A further experiment deals with MAP3K2 (Homo sapiens, UniProt Q9Y2U5). The method, then:
as §1

A further experiment addresses KIT (Homo sapiens, UniProt P10721). As to the method: as §1
A further experiment has as its target EGFR(L747-T751del,Sins) (Homo sapiens, UniProt P00533, DEL747-750/T751S). As to the method:
as §1

The target of a further experiment is FLT3-autoinhibited (Homo sapiens, UniProt P36888). The method, then:
as §1

Another experiment concerns the target EPHB1 (Homo sapiens, UniProt P54762). The method, then:
as §1

In another experiment the target is PLK3 (Homo sapiens, UniProt Q9H4B4). The method, then: as §1
The target of another experiment is SYK (Homo sapiens, UniProt P43405). As to the method: as §1
The next experiment deals with ERBB3 (Homo sapiens, UniProt P21860). The method, then: as §1
For another experiment, the target named is TEC (Homo sapiens, UniProt P42680). As to the method: as §1
The next experiment has as its target DMPK (Homo sapiens, UniProt Q09013). The method, then:
as §1

A further experiment has as its target TAOK1 (Homo sapiens, UniProt Q7L7X3). The method, then: as §1
The next experiment has as its target SRMS (Homo sapiens, UniProt Q9H3Y6). As to the method: as §1
In another experiment the target is RIOK1 (Homo sapiens, UniProt Q9BRS2). As to the method: as §1
For experiment [2], the target named is T2, RSK4(Kin.Dom.2-C-terminal) (Homo sapiens, UniProt Q9UK32).
T2 construct: gene RPS6KA6; Kin.Dom.2-C-terminal
As to the method: as §1

Another experiment addresses BMPR1B (Homo sapiens, UniProt O00238). As to the method:
as §1

Another experiment has as its target CSNK1D (Homo sapiens, UniProt P48730). The method, then:
as §1

For another experiment, the target named is T3, DCAMKL2 (Homo sapiens, UniProt Q8N568).
T3 construct: gene DCLK2
The method, then: as §1

The next experiment concerns the target T4, VPS34 (Homo sapiens, UniProt Q8NEB9).
T4 construct: gene PIK3C3
As to the method:
as §1

The next experiment deals with PIP5K1C (Homo sapiens, UniProt O60331). As to the method: as §1
In the next experiment the target is BRSK2 (Homo sapiens, UniProt Q8IWQ3). As to the method: as §1
The next experiment deals with LIMK1 (Homo sapiens, UniProt P53667). As to the method:
as §1

The target in the next experiment is FLT1 (Homo sapiens, UniProt P17948). As to the method:
as §1

Chain of FLT3-autoinhibited (P36888 whole entry): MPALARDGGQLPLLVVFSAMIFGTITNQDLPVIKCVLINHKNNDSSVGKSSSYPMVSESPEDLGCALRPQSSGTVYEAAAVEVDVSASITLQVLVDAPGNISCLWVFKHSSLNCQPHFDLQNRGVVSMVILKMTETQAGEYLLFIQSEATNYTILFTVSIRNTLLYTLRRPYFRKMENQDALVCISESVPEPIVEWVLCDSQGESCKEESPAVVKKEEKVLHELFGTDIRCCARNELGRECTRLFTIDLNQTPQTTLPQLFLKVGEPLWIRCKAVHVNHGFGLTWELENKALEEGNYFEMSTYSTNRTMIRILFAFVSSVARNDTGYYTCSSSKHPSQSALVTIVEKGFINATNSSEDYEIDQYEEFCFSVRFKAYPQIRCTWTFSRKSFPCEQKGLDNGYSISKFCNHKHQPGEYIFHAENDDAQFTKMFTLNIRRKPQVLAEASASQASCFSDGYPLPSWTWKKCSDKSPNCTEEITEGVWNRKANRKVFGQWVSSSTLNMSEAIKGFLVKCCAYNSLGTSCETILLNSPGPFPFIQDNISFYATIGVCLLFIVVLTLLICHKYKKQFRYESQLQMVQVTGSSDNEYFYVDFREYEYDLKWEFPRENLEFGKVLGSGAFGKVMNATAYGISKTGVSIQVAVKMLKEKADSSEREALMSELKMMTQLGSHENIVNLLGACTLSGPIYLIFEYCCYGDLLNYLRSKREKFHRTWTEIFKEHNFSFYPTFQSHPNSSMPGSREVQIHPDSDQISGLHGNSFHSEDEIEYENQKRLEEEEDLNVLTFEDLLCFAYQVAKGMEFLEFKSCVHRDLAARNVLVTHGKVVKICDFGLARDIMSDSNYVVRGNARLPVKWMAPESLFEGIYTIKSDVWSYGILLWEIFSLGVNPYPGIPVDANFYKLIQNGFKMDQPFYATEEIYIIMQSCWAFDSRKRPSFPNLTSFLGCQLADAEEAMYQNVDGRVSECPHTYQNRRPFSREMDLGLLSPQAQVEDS
Chain of SRMS (Q9H3Y6 whole entry): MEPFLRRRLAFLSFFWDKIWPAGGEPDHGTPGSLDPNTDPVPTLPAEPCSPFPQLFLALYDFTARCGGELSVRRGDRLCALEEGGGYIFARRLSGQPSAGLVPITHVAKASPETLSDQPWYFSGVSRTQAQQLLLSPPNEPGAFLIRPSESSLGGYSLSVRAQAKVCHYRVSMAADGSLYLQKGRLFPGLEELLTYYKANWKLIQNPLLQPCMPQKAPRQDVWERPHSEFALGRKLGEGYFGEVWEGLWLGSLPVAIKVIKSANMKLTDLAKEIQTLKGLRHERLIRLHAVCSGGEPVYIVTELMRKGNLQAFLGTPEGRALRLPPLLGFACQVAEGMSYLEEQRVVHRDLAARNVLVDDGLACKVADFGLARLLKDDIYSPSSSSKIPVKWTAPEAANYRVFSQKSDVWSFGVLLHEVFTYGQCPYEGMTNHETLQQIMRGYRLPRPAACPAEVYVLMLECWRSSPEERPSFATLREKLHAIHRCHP
T1 sequence (O75676 whole entry): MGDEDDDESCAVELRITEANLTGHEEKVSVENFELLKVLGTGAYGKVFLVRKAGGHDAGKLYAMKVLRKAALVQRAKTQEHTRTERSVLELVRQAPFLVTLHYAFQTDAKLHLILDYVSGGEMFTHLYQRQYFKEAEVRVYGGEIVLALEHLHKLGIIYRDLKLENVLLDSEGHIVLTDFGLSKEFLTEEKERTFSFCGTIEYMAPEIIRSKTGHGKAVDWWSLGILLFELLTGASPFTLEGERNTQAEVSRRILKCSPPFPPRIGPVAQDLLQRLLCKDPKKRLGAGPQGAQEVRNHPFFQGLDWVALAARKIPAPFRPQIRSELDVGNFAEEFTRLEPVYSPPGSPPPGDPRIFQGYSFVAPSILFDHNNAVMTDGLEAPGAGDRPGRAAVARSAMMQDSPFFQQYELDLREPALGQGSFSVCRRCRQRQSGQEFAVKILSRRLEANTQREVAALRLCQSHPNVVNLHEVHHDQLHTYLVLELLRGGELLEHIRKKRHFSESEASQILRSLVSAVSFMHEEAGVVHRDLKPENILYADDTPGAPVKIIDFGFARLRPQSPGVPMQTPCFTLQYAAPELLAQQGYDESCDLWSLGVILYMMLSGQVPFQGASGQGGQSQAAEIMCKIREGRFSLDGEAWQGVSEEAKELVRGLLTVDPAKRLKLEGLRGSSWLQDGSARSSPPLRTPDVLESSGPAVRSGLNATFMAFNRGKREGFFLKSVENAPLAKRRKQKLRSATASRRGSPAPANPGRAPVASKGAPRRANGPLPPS
T2 sequence (Q9UK32 whole entry): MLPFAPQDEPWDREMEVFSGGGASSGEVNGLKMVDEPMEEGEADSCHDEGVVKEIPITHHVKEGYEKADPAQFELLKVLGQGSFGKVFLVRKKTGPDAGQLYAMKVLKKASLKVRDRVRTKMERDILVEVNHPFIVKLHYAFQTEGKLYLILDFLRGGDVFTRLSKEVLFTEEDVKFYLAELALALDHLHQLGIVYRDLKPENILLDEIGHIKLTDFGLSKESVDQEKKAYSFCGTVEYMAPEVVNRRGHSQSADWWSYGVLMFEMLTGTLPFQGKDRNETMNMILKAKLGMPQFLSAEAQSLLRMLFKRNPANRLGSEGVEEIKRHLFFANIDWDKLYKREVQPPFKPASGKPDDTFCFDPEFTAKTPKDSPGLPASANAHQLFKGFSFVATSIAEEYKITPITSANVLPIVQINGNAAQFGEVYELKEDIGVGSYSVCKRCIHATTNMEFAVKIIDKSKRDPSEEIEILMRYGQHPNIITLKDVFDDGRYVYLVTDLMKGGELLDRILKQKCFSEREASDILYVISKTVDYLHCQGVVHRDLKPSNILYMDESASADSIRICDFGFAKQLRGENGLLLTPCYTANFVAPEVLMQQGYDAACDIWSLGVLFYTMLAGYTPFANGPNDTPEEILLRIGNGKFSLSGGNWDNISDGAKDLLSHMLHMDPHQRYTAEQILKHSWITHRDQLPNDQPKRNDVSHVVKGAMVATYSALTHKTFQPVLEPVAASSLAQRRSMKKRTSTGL
Chain of STK35 (Q8TDR2 whole entry): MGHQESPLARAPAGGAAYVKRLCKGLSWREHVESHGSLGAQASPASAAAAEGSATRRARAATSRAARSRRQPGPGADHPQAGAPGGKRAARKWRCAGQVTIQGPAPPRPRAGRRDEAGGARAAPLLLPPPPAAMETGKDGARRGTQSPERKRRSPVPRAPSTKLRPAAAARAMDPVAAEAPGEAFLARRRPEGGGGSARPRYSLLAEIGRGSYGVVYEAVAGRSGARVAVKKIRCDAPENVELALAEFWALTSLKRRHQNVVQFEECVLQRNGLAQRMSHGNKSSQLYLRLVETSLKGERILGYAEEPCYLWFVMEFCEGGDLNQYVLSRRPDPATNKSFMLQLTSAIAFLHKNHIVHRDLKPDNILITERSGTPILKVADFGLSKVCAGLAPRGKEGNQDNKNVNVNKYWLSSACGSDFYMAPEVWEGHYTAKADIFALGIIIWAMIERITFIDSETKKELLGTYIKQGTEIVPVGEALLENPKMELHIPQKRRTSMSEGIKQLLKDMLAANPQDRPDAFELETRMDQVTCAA
Chain of CSNK1D (P48730 whole entry): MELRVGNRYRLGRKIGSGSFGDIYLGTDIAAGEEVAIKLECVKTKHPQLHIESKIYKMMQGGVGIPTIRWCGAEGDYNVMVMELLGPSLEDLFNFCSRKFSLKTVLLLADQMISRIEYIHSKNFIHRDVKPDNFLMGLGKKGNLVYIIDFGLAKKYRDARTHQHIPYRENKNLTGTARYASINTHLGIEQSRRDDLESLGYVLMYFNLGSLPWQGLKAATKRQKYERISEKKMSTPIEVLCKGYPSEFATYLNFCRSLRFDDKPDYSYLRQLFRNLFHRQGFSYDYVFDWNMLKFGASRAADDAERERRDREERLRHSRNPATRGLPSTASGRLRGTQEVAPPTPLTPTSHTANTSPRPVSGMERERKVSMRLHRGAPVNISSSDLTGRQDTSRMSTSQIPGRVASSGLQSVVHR
Chain of PIP5K1C (O60331 whole entry): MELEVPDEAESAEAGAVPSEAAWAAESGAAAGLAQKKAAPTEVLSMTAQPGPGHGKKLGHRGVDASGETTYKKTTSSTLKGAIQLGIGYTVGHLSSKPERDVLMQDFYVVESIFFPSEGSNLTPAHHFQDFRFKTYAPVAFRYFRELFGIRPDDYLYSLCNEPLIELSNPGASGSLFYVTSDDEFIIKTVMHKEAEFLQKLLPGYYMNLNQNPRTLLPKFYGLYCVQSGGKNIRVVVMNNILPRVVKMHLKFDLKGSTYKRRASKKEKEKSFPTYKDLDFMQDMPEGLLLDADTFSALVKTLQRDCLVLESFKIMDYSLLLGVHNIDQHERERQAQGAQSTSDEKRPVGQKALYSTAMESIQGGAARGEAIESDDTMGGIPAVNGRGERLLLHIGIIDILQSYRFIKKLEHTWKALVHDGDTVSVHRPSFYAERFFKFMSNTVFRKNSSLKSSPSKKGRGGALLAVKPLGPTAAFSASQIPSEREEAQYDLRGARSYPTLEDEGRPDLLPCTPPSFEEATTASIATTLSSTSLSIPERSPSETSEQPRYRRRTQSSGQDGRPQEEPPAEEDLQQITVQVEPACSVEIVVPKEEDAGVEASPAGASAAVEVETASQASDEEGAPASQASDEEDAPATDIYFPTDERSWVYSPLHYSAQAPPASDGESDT

Consider `CNS(=O)(=O)c1ccc(N(C)C)c(Nc2ncnc3cc(OC)c(OC)cc23)c1` [compound 7, 3-((6,7-dimethoxyquinazolin-4-yl)amino)-4-(dimethylamino)-N-methylbenzenesulfonamide], for which the inhibition (usually the change of the read-out against control, counted positive when it falls) at 1 µM on STK35 was 0%; in experiment [1], 9%; on MAP3K2, 12%; at KIT, 13%; on EGFR(L747-T751del,Sins) it was 0%; at FLT3-autoinhibited it was 12%. Moreover, the inhibition at 1 µM at EPHB1 came to 0%; on PLK3, 0%; at SYK, 0%; on ERBB3, 31%; on TEC it was 0%; on DMPK, 0%. Further, the inhibition at 1 µM worked out at 25% on TAOK1; 41% at SRMS; 0% on RIOK1; 24% in experiment [2]; 34% on BMPR1B; 0% at CSNK1D. In addition, the inhibition at 1 µM at DCAMKL2 worked out at 0%; on VPS34, 18%; on PIP5K1C it was 33%; at BRSK2, 27%; on LIMK1, 0%; at FLT1, 0%.

The values are drawn from publication PMC7180948, “New Insights into 4-Anilinoquinazolines as Inhibitors of Cardiac Troponin I–Interacting Kinase (TNNi3K)” (Molecules, 2020).
